Assay: Binding affinity was determined against uridine phosphorylase in Sarcoma 180 cells
Format: cell-based

`O=c1[nH]c(=O)n(COCCO)cc1Cc1ccccc1` showed a Ki of 98 nM.

In the case of `O=c1[nH]c(=O)n(COC(CO)CO)cc1Cc1ccccc1`, the Ki is reported as 98 nM.

Work on `NCC(CO)OCn1cc(Cc2ccccc2)c(=O)[nH]c1=O` (stereo not drawn) yielded a Ki of 20 nM.
